These results are taken from patent US7285546B2, “Cephalotaxanes, their method of preparation and their use in treatment of cancers, leukemias, parasites including those resistant to usual chemotherapeutic agents and as reversal agents” (Stragen Pharma S.A., priority 2000, dated 2007).

Values after ≈ are worked out from the molar mass of the structure shown.

One assay relates to K562 cell line. Nature of the assay: MTT test of structural analogues of harringtonines on K562 cell line. It counts as cell-based. As to conditions: Homo sapiens, K562, 72 h. On the procedure: Structural analogues of harringtonines described in this invention were tested on K562 cell line, derived from chronic myeloid leukemia cells in blastic transformation (bcr-abl positive). The cell line was purchased from ATCC (American Tissue Culture Collection) and grown in RPMI medium supplemented with 10% heat-inactivated fetal calf serum, 2 mmol/L glutamine, […] penicillin and […] streptomycin. All tested products were initially dissolved in […] (pH=2), supplemented with ultrasound treatment during 1 h. Working concentrations were made by dilution in culture medium (pH around 7). Cells in exponential growth phase were placed into 96-microwell plates in concentration 3×10^4/mL (total volume 200 μL/well) and incubated with drugs for 72 h at 37° C. in 5% CO2 humidified atmosphere. Following incubation, 2 μL of MTT solution (Sigma, St. Louis, Mo.) was added to each well. During the following 6 h of incubation at 37° C., the purple formazan product was formed by conversion of the yellow MTT salt in the mitochondria of the viable cells. The resulting precipitate was dissolved in DMSO and the amount of converted MTT was quantified in an ELISA reader (MR 5000, Dynatech). Each product was tested in triplicate (3×8 wells). Every test contained at least one plate with HHT as control, added in the same concentration as the tested products.
Take `COC1=C[C@]23CCCN2CCc2cc4c(cc2[C@@H]3[C@@H]1O)OCO4` [CEPHALOTAXINE (CTX), cephalotaxine, reference compound]: the midpoint of inhibition, the IC50, lay at 2 µg/mL (≈ 6.34 µM).
Take `CCOC(=O)C[C@](O)(CCCC(C)(C)O)C(=O)OC1C(OC)=C[C@@]23CCCN2CCc2cc4c(cc2[C@H]13)OCO4` (stereo partly drawn) [Example 25, (2′R)-4′-ethyl-4′-demethyl-homoharringtonine]: the IC50 was 0.041 µg/mL (≈ 0.0733 µM).
The same measure, in the same setting: to `COC1=C[C@]23CCCN2CCc2cc4c(cc2[C@@H]3C1OC(=O)[C@@](O)(CCCC(C)(C)O)CC(=O)OC(C)C)OCO4` (stereo partly drawn) [Example 27, (2′R)-4′-isopropyl-4′-demethyl-homoharringtonine] belongs 0.08 µg/mL (≈ 0.139 µM); to `COC1=C[C@@]23CCCN2CCc2cc4c(cc2[C@@H]3C1OC(=O)[C@@](O)(CCCC(C)(C)O)CC(=O)SC)OCO4` (stereo partly drawn) [Example 30, (2′R)-4′-methylthio-4′-demethoxy-homoharringtonine], 0.05 µg/mL (≈ 0.089 µM).
Molecule `CCSC(=O)C[C@](O)(CCCC(C)(C)O)C(=O)OC1C(OC)=C[C@@]23CCCN2CCc2cc4c(cc2[C@H]13)OCO4` (stereo partly drawn) [Example 32, (2′R)-4′-ethylthio-4′-demethoxy-homoharringtonine] had a 50% inhibitory concentration (IC50) of 0.08 µg/mL (≈ 0.139 µM).
In turn, `COC1=C[C@@]23CCCN2CCc2cc4c(cc2[C@@H]3C1OC(=O)[C@@](O)(CCCC(C)(C)O)CC(=O)SC(C)C)OCO4` (stereo partly drawn) [Example 34, (2′R)-4′-isopropylthio-4′-demethoxy-homoharringtonine] displayed an IC50 of 0.05 µg/mL (≈ 0.0848 µM).
Still for that read-out and setting: to `COC1=C[C@@]23CCCN2CCc2cc4c(cc2[C@@H]3C1OC(=O)[C@@](O)(CCCC(C)(C)O)CC(=O)SC(C)(C)C)OCO4` (stereo partly drawn) [Example 36, (2′R)-4′-tert-butylthio-4′-demethoxy-homoharringtonine] belongs 0.02 µg/mL (≈ 0.0331 µM).
Same read-out and setting: to `COC1=C[C@@]23CCCN2CCc2cc4c(cc2[C@@H]3C1OC(=O)[C@@](O)(CCCC(C)(C)O)CC(=O)OCC=C(C)C)OCO4` (stereo partly drawn) [Example 39, (2′R)-4′-(3-methyl-2-butenyl)-4′-demethyl-homoharringtonine] belongs 0.028 µg/mL (≈ 0.0467 µM); to `C=CCOC(=O)C[C@](O)(CCCC(C)(C)O)C(=O)OC1C(OC)=C[C@@]23CCCN2CCc2cc4c(cc2[C@H]13)OCO4` (stereo partly drawn) [Example 40, (2′R)-4′-(2-propenyl)-4′-demethyl-homoharringtonine], 0.0145 µg/mL (≈ 0.0254 µM).
The same measure, in the same setting: to `CC#CCOC(=O)C[C@](O)(CCCC(C)(C)O)C(=O)OC1C(OC)=C[C@@]23CCCN2CCc2cc4c(cc2[C@H]13)OCO4` (stereo partly drawn) [Example 42, (2′R)-4′-(2-butynyl)-4′-demethyl-homoharringtonine] belongs 0.0105 µg/mL (≈ 0.018 µM).
For `COC1=C[C@@]23CCCN2CCc2cc4c(cc2[C@@H]3C1OC(=O)[C@@](O)(CCCC(C)(C)O)CC(=O)OCC(F)(F)F)OCO4` (stereo partly drawn) [Example 48, (2′R)-4′-(2,2,2-trifluoroethyl)-4′-demethyl-homoharringtonine], the concentration for half-maximal inhibition (IC50) stood at 0.1 µg/mL (≈ 0.163 µM).
The same measure, in the same setting: to `COC1=C[C@@]23CCCN2CCc2cc4c(cc2[C@@H]3C1OC(=O)[C@@](O)(CCCC(C)(C)O)CC(=O)OCC1CC1)OCO4` (stereo partly drawn) [Example 49, (2′R)-4′-cyclopropylmethyl-4′-demethyl-homoharringtonine] belongs 0.07 µg/mL (≈ 0.12 µM).
Still for that read-out and setting: with `CCCCOC(=O)C[C@](O)(CCCC(C)(C)O)C(=O)OC1C(OC)=C[C@@]23CCCN2CCc2cc4c(cc2[C@H]13)OCO4` (stereo partly drawn) [Example 50, (2′R)-4′-butyl-4′-demethyl-homoharringtonine] the figure was 0.013 µg/mL (≈ 0.0221 µM).
In the case of `CCCOC(=O)C[C@](O)(CCCC(C)(C)O)C(=O)OC1C(OC)=C[C@@]23CCCN2CCc2cc4c(cc2[C@H]13)OCO4` (stereo partly drawn) [Example 51, (2′R)-4′-propyl-4′-demethyl-homoharringtonine], half-maximal inhibition (IC50) was put at 0.0225 µg/mL (≈ 0.0392 µM).
For the molecule `COC1=C[C@@]23CCCN2CCc2cc4c(cc2[C@@H]3C1OC(=O)[C@@](O)(CCCC(C)(C)O)CC(=O)OCC(C)C)OCO4` (stereo partly drawn) [Example 52, (2′R)-4′-isobutyl-4′-demethyl-homoharringtonine], 0.024 µg/mL (≈ 0.0408 µM) corresponded to half-maximal inhibition (IC50).
The same measure, in the same setting: with `CCCCCCOC(=O)C[C@](O)(CCCC(C)(C)O)C(=O)OC1C(OC)=C[C@@]23CCCN2CCc2cc4c(cc2[C@H]13)OCO4` (stereo partly drawn) [Example 54, (2′R)-4′-hexyl-4′-demethyl-homoharringtonine] the figure was 0.005 µg/mL (≈ 0.00812 µM).
The same measure, in the same setting: with `CC=CCOC(=O)C[C@](O)(CCC(C)(C)O)C(=O)OC1C(OC)=C[C@@]23CCCN2CCc2cc4c(cc2[C@H]13)OCO4` (stereo partly drawn) [Example 55, (2′R)-4′-(but-2-enyl)-4′-demethyl-harringtonine] the figure was 0.014 µg/mL (≈ 0.0245 µM); with `CC=CCOC(=O)C[C@](O)(CCCC(C)(C)O)C(=O)OC1[C@H]2c3cc4c(cc3[C@@H]3CN5CCC[C@@]25C[C@@]1(OC)O3)OCO4` (stereo partly drawn) [Example 56, 4-(2-butenyl) (2R)-2-hydroxy-2-(4-hydroxy-4-methylpentyl)succinate of (−)-drupacine], 0.0135 µg/mL (≈ 0.0224 µM); with `COC(=O)C[C@](O)(CCC(C)(C)F)C(=O)OC1C(OC)=C[C@@]23CCCN2CCc2cc4c(cc2[C@H]13)OCO4` (stereo partly drawn) [Example 59, (2′R)-3″-Fluoro-3″-deoxy-harringtonine], 0.0135 µg/mL (≈ 0.0253 µM).
The same measure, in the same setting: with `COC(=O)C[C@](O)(CCC=C(C)C)C(=O)OC1C(OC)=C[C@@]23CCCN2CCc2cc4c(cc2[C@H]13)OCO4` (stereo partly drawn) [Example 61, 4-methyl (2R)-2-hydroxy-2-(4-methyl-pent-3-enyl)succinate of (−)-cephalotaxine] the figure was 0.0175 µg/mL (≈ 0.0332 µM); with `CCCCCCCOC(=O)C[C@](O)(CCCC(C)(C)O)C(=O)OC1C(OC)=C[C@@]23CCCN2CCc2cc4c(cc2[C@H]13)OCO4` (stereo partly drawn) [Example 66, (2′R)-4′-heptyl-4′-demethyl-homoharringtonine], 0.003 µg/mL (≈ 0.00476 µM); with `CCCCCCCCOC(=O)C[C@](O)(CCCC(C)(C)O)C(=O)OC1C(OC)=C[C@@]23CCCN2CCc2cc4c(cc2[C@H]13)OCO4` (stereo partly drawn) [Example 67, (2′R)-4′-octyl-4′-demethyl-homoharringtonine], 0.009 µg/mL (≈ 0.014 µM).
`CCC(C)COC(=O)C[C@](O)(CCCC(C)(C)O)C(=O)OC1C(OC)=C[C@@]23CCCN2CCc2cc4c(cc2[C@H]13)OCO4` (stereo partly drawn) [Example 69, (2′R)-4′-(methyl-2-butyl)-4′-demethyl-homoharringtonine] returned an IC50 of 0.029 µg/mL (≈ 0.0482 µM).
Regarding `COC1=C[C@@]23CCCN2CCc2cc4c(cc2[C@@H]3C1OC(=O)[C@@](O)(CCCC(C)(C)O)CC(=O)OCc1ccc(C)cc1)OCO4` (stereo partly drawn) [Example 72, (2′R)-4′-p-methylbenzyl-4′-demethyl-homoharringtonine], the IC50 stood at 0.006 µg/mL (≈ 0.00944 µM).

Staying with this assay, now noted: K562 cell line, 72 h incubation, MTT.
With “4-(hexa-2,4-dienyl) (2R)-2-hydroxy-2-(4-hydroxy-4-methylpentyl)succinate of (−)-drupacine [Example 57]”, the IC50 came to 0.009 µg/mL.
As to `CC=CCOC(=O)C[C@](O)(CCCC(C)(C)O)C(=O)O[C@@H]1C(OC)=C[C@]23CCCN2CCc2cc4c(cc2[C@H]13)OCO4` [Example 37, (2′R)-4′-(but-2-enyl)-4′-demethyl-homoharringtonine], inhibition was half-maximal at 0.0125 µg/mL (≈ 0.0213 µM) (IC50).
The same measure, in the same setting: to `C=C(C)COC(=O)C[C@](O)(CCCC(C)(C)O)C(=O)O[C@@H]1C(OC)=C[C@]23CCCN2CCc2cc4c(cc2[C@H]13)OCO4` [Example 41, (2′R)-4′-(2-methyl-2-propenyl)-4′-demethyl-homoharringtonine] belongs 0.0085 µg/mL (≈ 0.0145 µM); to `CC=CCCCOC(=O)C[C@](O)(CCCC(C)(C)O)C(=O)O[C@@H]1C(OC)=C[C@]23CCCN2CCc2cc4c(cc2[C@H]13)OCO4` [Example 53, (2′R)-4′-(hex-4-enyl)-4′-demethyl-homoharringtonine], 0.0085 µg/mL (≈ 0.0138 µM).
